Experimental data published in article doi:10.1101/2021.03.02.433618v2 (biorxiv, 2021).
Like-named read-outs stand apart in the source and are kept apart here.

Experiments:
3CLpro [1] = molecular target: T1, 3CLpro (Severe acute respiratory syndrome coronavirus 2, UniProt P0DTD1); experiment: biochemical
3CLpro [2] = molecular target: T1, 3CLpro; experiment: biochemical; remark: listed apart in the source

| SMILES | IC50 (3CLpro [1]) | IC50 (3CLpro [2]) |
| --- | --- | --- |
| CC(=O)c1c(O)c(C)c(O)c(Cc2c(O)c3c(c(C(=O)/C=C/c4ccccc4)c2O)OC(C)(C)C=C3)c1O [rottlerin] | 37 µM |  |
| O=c1cc(-c2ccc(O)c(-c3c(O)cc(O)c4c(=O)cc(-c5ccc(O)cc5)oc34)c2)oc2cc(O)cc(O)c12 [amentoflavone] |  | 143 ± 23 µM |
| O=c1cc(-c2ccc(O)c(O)c2)oc2cc(O)cc(O)c12 [luteolin] |  | 343 ± 77 µM |
